pIC50: −log10 of the molar value.
Assays:
[1] = Cytotoxicity against human MCF-10A cells assessed as inhibition of cell growth incubated for 72 hrs by MTT assay; type: toxicity, cell-based
[2] = Selectivity ratio of IC50 for cytotoxicity against human MCF-10A cells assessed as inhibition of cell growth to IC50 for cytotoxicity against […] cells assessed as inhibition of cell growth; type: toxicity, cell-based; conditions: MCF-10A cells versus 4T1 cells, read-out: Ratio IC50
4T1 = experiment: Cytotoxicity against mouse 4T1 cells assessed as inhibition of cell growth incubated for 72 hrs by MTT assay; type: functional, cell-based; conditions: 4T1, 72 h
[3] = Selectivity ratio of IC50 for cytotoxicity against human MCF-10A cells assessed as inhibition of cell growth to IC50 for cytotoxicity against human MDA-MB-453 cells assessed as inhibition of cell growth; type: toxicity, cell-based; conditions: MCF-10A cells versus MDA-MB-453 cells, read-out: Ratio IC50
[4] = Selectivity ratio of IC50 for cytotoxicity against human HEK293 cells assessed as inhibition of cell growth to IC50 for cytotoxicity against human MDA-MB-231 cells assessed as inhibition of cell growth; type: toxicity, cell-based; conditions: HEK293 cells versus MDA-MB-231 cells, read-out: Ratio IC50
[5] = Selectivity ratio of IC50 for cytotoxicity against human HEK293 cells assessed as inhibition of cell growth to IC50 for cytotoxicity against mouse 4T1 cells assessed as inhibition of cell growth; type: toxicity, cell-based; conditions: HEK293 cells versus 4T1 cells, read-out: Ratio IC50
[6] = Selectivity ratio of IC50 for cytotoxicity against human HCEC cells assessed as inhibition of cell growth to IC50 for cytotoxicity against human MCF7 cells assessed as inhibition of cell growth; type: toxicity, cell-based; conditions: HCEC cells versus MCF7 cells, read-out: Ratio IC50
[7] = Selectivity ratio of IC50 for cytotoxicity against human MCF-10A cells assessed as inhibition of cell growth to IC50 for cytotoxicity against human MDA-MB-231 cells assessed as inhibition of cell growth; type: toxicity, cell-based; conditions: MCF-10A cells versus MDA-MB-231 cells, read-out: Ratio IC50
[8] = Selectivity ratio of IC50 for cytotoxicity against human HEK293 cells assessed as inhibition of cell growth to IC50 for cytotoxicity against human MCF7 cells assessed as inhibition of cell growth; type: toxicity, cell-based; conditions: HEK293 cells versus MCF7 cells, read-out: Ratio IC50
[9] = Selectivity ratio of IC50 for cytotoxicity against human HEK293 cells assessed as inhibition of cell growth to IC50 for cytotoxicity against human MDA-MB-453 cells assessed as inhibition of cell growth; type: toxicity, cell-based; conditions: HEK293 cells versus MDA-MB-453 cells, read-out: Ratio IC50
[10] = Cytotoxicity against human HCEC cells assessed as inhibition of cell growth incubated for 72 hrs by MTT assay; type: toxicity, cell-based; conditions: human, HCEC cells
MDA-MB-231 = experiment: Cytotoxicity against human MDA-MB-231 cells assessed as inhibition of cell growth incubated for 72 hrs by MTT assay; type: functional, cell-based; conditions: MDA-MB-231, 72 h
[11] = Selectivity ratio of IC50 for cytotoxicity against human HCEC cells assessed as inhibition of cell growth to IC50 for cytotoxicity against mouse 4T1 cells assessed as inhibition of cell growth; type: toxicity, cell-based; conditions: HCEC cells versus 4T1 cells, read-out: Ratio IC50
MCF7 = experiment: Cytotoxicity against human MCF7 cells assessed as inhibition of cell growth incubated for 72 hrs by MTT assay; type: functional, cell-based; conditions: MCF7, 72 h
[12] = Selectivity ratio of IC50 for cytotoxicity against human HCEC cells assessed as inhibition of cell growth to IC50 for cytotoxicity against human MDA-MB-231 cells assessed as inhibition of cell growth; type: toxicity, cell-based; conditions: HCEC cells versus MDA-MB-231 cells, read-out: Ratio IC50
[13] = Selectivity ratio of IC50 for cytotoxicity against human MCF-10A cells assessed as inhibition of cell growth to IC50 for cytotoxicity against human MCF7 cells assessed as inhibition of cell growth; type: toxicity, cell-based; conditions: MCF-10A cells versus MCF7 cells, read-out: Ratio IC50
[14] = Cytotoxicity against human HEK293 cells assessed as inhibition of cell growth incubated for 72 hrs by MTT assay; type: toxicity, cell-based
MDA-MB-453 = experiment: Cytotoxicity against human MDA-MB-453 cells assessed as inhibition of cell growth incubated for 72 hrs by MTT assay; type: functional, cell-based; conditions: MDA-MB-453, 72 h
[15] = Selectivity ratio of IC50 for cytotoxicity against human HCEC cells assessed as inhibition of cell growth to IC50 for cytotoxicity against human MDA-MB-453 cells assessed as inhibition of cell growth; type: toxicity, cell-based; conditions: HCEC cells versus MDA-MB-453 cells, read-out: Ratio IC50

## CCCNNC(=O)c1cnc(N2CCCCC2)cn1
[1]
  IC50 at 72 h: 110 µM
[2]
  selectivity ratio: > 40
4T1
  pIC50: 6.05
[3]
  selectivity ratio: > 40
[4]
  selectivity ratio: > 40
[5]
  selectivity ratio: > 40
[6]
  selectivity ratio: > 40
[7]
  selectivity ratio: > 40
[8]
  selectivity ratio: > 40
[9]
  selectivity ratio: > 40
[10]
  IC50 at 72 h: 163 µM
MDA-MB-231
  pIC50: 3.88
[11]
  selectivity ratio: > 40
MCF7
  pIC50: 5.61
[12]
  selectivity ratio: > 40
[13]
  selectivity ratio: > 40
[14]
  IC50 at 72 h: 118 µM
MDA-MB-453
  pIC50: 5.54
[15]
  selectivity ratio: > 40

## CCCNNC(=O)c1cnc(NC(C)=O)cn1
[1]
  IC50 at 72 h: 142 µM
[2]
  selectivity ratio: > 40
4T1
  pIC50: 6.04
[3]
  selectivity ratio: > 40
[4]
  selectivity ratio: > 40
[5]
  selectivity ratio: > 40
[6]
  selectivity ratio: > 40
[7]
  selectivity ratio: > 40
[8]
  selectivity ratio: > 40
[9]
  selectivity ratio: > 40
[10]
  IC50 at 72 h: 164 µM
MDA-MB-231
  pIC50: 6.01
[11]
  selectivity ratio: > 40
MCF7
  pIC50: 5.92
[12]
  selectivity ratio: > 40
[13]
  selectivity ratio: > 40
[14]
  IC50 at 72 h: 118 µM
MDA-MB-453
  pIC50: 5.71
[15]
  selectivity ratio: > 40

## CCCCNNC(=O)c1cnc(NC(=O)c2ccc3ncccc3c2)cn1
[1]
  IC50 at 72 h: 220 µM
[2]
  selectivity ratio: > 40
4T1
  pIC50: 5.53
[3]
  selectivity ratio: > 40
[4]
  selectivity ratio: > 40
[5]
  selectivity ratio: > 40
[6]
  selectivity ratio: > 40
[7]
  selectivity ratio: > 40
[8]
  selectivity ratio: > 40
[9]
  selectivity ratio: > 40
[10]
  IC50 at 72 h: 234 µM
MDA-MB-231
  pIC50: 5.55
[11]
  selectivity ratio: > 40
MCF7
  pIC50: 5.87
[12]
  selectivity ratio: > 40
[13]
  selectivity ratio: > 40
[14]
  IC50 at 72 h: 264 µM
MDA-MB-453
  pIC50: 5.31
[15]
  selectivity ratio: > 40
